Measurements reported in ChEMBL document CHEMBL1697781, “Assessment of the health effects of chemicals in humans: II. Construction of an adverse effects database for QSAR modeling” (Curr Drug Discov Technol, 2004).

Key:
Conditions in all cases: human; call rule not given here
[1] = test system: Hepatotoxicity; assay: FDA HLAED, alkaline phosphatase increase
[2] = test system: Hepatotoxicity; assay: FDA HLAED, serum glutamic oxaloacetic transaminase (SGOT) increase
[3] = test system: Hepatotoxicity; assay: FDA HLAED, lactate dehydrogenase (LDH) increase
[4] = test system: Hepatotoxicity; assay: FDA HLAED, liver enzyme composite activity
[5] = test system: Hepatotoxicity; assay: FDA HLAED, gamma-glutamyl transferase (GGT) increase
[6] = test system: Hepatotoxicity; assay: FDA HLAED, serum glutamic pyruvic transaminase (SGPT) increase
Wherever GGT Increase - Index Value is given: reference of the scale not given here.
Wherever LDH Increase - Index Value is given: reference of the scale not given here.

SMILES | Alkaline Phosphatase Increase - Activity Score [1] | Alkaline Phosphatase Increase - Index Value [1] | Alkaline Phosphatase Increase - Number of Reports [1] | SGOT Increase - Activity Score [2] | SGOT Increase - Index Value [2] | SGOT Increase - Number of Reports [2] | LDH Increase - Activity Score [3] | LDH Increase - Index Value [3] | LDH Increase - Number of Reports [3] | Composite Activity - Active [4] | Composite Activity - Marginal [4] | Composite Activity - Score [4] | GGT Increase - Activity Score [5] | GGT Increase - Index Value [5] | GGT Increase - Number of Reports [5] | SGPT Increase - Activity Score [6] | SGPT Increase - Index Value [6] | SGPT Increase - Number of Reports [6] | further results
Fc1ccccc1C1=NCC(=S)N(CC(F)(F)F)c2ccc(Cl)cc21 [QUAZEPAM] | Inactive | 0 | < 4 | Inactive | 0 | < 4 | Inactive | 0 | < 4 | 0 | 0 | Inactive | Inactive | 0 | < 4 | Inactive | 0 | < 4 | –
CNC(=C[N+](=O)[O-])NCCSCc1ccc(CN(C)C)o1 [RANITIDINE] | Inactive | 1.1 | >= 4 | Inactive | 1.2 | >= 4 | Inactive | 0.3 | >= 4 | 0 | 0 | Inactive | Inactive | 0 | < 4 | Inactive | 1 | >= 4 | –
CO[C@H]1/C=C/O[C@@]2(C)Oc3c(C)c(O)c4c(c3C2=O)C2=NC3(CCN(CC(C)C)CC3)NC2=C(NC(=O)/C(C)=C\C=C\[C@H](C)[C@H](O)[C@@H](C)[C@@H](O)[C@@H](C)[C@H](OC(C)=O)[C@@H]1C)C4=O [RIFABUTIN] | Active | 15.9 | >= 4 | Active | 31.8 | >= 4 | Inactive | 5.3 | < 4 | – | – | – | Active | 18.5 | >= 4 | Active | 31.8 | >= 4 | Composite Activity - Active ([4]; Liver): 4; Composite Activity - Marginal ([4]; Liver): 0; Composite Activity - Score ([4]; Liver): Active
Nc1nc2ccc(OC(F)(F)F)cc2s1 [RILUZOLE] | Active | 45.2 | < 4 | Inactive | 22.6 | < 4 | Inactive | 22.6 | < 4 | 1 | 0 | Inactive | Inactive | 22.6 | < 4 | Inactive | 22.6 | < 4 | –
CC(N)C12CC3CC(CC(C3)C1)C2 (centres undefined) [RIMANTADINE] | Inactive | 1.7 | < 4 | Inactive | 3.3 | < 4 | Inactive | 0 | < 4 | 0 | 0 | Inactive | Inactive | 0 | < 4 | Inactive | 1.7 | < 4 | –
CCC(=O)[C@@]1(C)[C@H](C)C[C@H]2[C@@H]3CCC4=CC(=O)C=C[C@]4(C)[C@H]3[C@@H](O)C[C@@]21C [RIMEXOLONE] | Inactive | 0 | < 4 | Inactive | 0 | < 4 | Inactive | 0 | < 4 | 0 | 0 | Inactive | Inactive | 0 | < 4 | Inactive | 0 | < 4 | –
Cc1nc2n(c(=O)c1CCN1CCC(c3noc4cc(F)ccc34)CC1)CCCC2 [RISPERIDONE] | Inactive | 1.6 | >= 4 | Active | 4.8 | >= 4 | Inactive | 0.9 | >= 4 | 2 | 0 | Active | Inactive | 1.6 | >= 4 | Active | 4.9 | >= 4 | –
CC(NCCc1ccc(O)cc1)C(O)c1ccc(O)cc1 (centres undefined) [RITODRINE] | Inactive | 1.1 | < 4 | Active | 4.2 | >= 4 | Inactive | 0 | < 4 | 2 | 0 | Active | Inactive | 0 | < 4 | Active | 4.2 | >= 4 | –
